Data: patent publication US20250134122A1, “PEDIATRIC NUTRITIONAL COMPOSITIONS AND METHODS FOR INFANTS DELIVERED BY C-SECTION” (Mead Johnson Nutrition Company, priority 2018, published 2025)

System: mouse fecal microbiota
Test: Gut microbiota community structure (16S rRNA V4-V5 sequencing, β-diversity, PCoA) after 3 weeks on experimental diets
Type: in vivo
Conditions: adult male C57bl/6 mice, 3 weeks of feeding; versus Control-fed or SAL-fed mice; ADONIS p<0.05
Source text: Adult male C57bl/6 strains of Mus musculus (Charles Rivers Laboratories, Wilmington, MA) between 6-8 weeks of age were used in the study. After being received from the vendor, mice were placed on one of three experimental diets. Animals were given ad libitum access to water, and maintained on the experimental diets for 3 weeks. Experimental diets were: (1) Control diet (AlN-93G mouse chow); (2) AlN-93G supplemented with galactooligosaccharides (GOS 21.2 g/kg)+polydextrose (PDX 6.6 g/kg)+sialyllactose (SAL 2 g/kg); (3) AlN-93G supplemented with SAL.
Colon contents were removed via direct excision for metabolomic analysis, and the colon tissue was briefly washed in a PBS bath so as to not disturb the mucous layer. DNA was extracted from the medial section of the colon (˜10 mg) using a Qiagen DNA Mini Kit, following manufacturer's instructions with slight modifications. Briefly, tissues were incubated for 45 min at 37° C. in lysozyme buffer (20 mg/ml lysozyme, 20 mM TrisHCL, 2 mM EDTA, 1.2% Triton-x, pH 8.0), then bead-beat for 150 sec with 0.7 mm zirconia beads. Samples were incubated at 56° C. for 2 hr with Buffer ATL and Proteinase K, then incubated at 56° C. for 30 min and 95° C. for 10 min upon addition of Buffer AL. […] DNA was quantified with the Qubit 2.0 Fluorometer (Life Technologies, Carlsbad, CA) using the dsDNA Broad Range Assay Kit. […]

Question: Which “mouse fecal microbiota community structure (β-diversity; Unweighted UniFrac), PCoA clustering” value does the source give for sialyllactose [SAL] here?
Answer: not achieved
